In patent US20220073536A1 (Rigel Pharmaceuticals, Inc., priority 2003, published 2022):
pIC50: −log10 of the molar value. Values joined by “and” are separate entries in the source; they are usually repeats but may differ in a detail not shown here. Equal entries are not always repeated. Values belong to the compound of their own block, whether it stands above or below them.

Experiments:
[1] = tested on: cultured human mast cells (CHMC); test: CHMC low cell density ionomycin activation: tryptase assay; assay type: cell-based; details: Homo sapiens, Mast cell, 3 pt, read-out: LD Tryptase, CHMC, Iono, 3 pt
Syk kinase = target: T1, Syk kinase (Homo sapiens, UniProt P43405); test: Syk kinase biochemical fluorescence polarization assay; details: isolated Syk kinase, 11 pt, read-out: fp_syk, 11 pt
T1 construct: purchased Upstate, Lake Placid N.Y
Protocol: Many of the 2,4-pyrimidinediamine compounds were tested for the ability to inhibit Syk kinase catalyzed phosphorylation of a peptide substrate in a biochemical fluorescenced polarization assay with isolated Syk kinase. In this experiment, Compounds were diluted to 1% DMSO in kinase buffer (20 mM HEPES, pH 7.4, 5 mM MgCl2, 2 mM MnCl2, 1 mM DTT, 0.1 mg/mL acetylated Bovine Gamma Globulin). Compound in 1% DMSO (0.2% DMSO final) was mixed with ATP/substrate solution at room temperature. Syk kinase (Upstate, Lake Placid N.Y.) was added to a final reaction volume of 20 uL, and the reaction was incubated for 30 minutes at room temperature. […] EDTA (10 mM final)/anti-phosphotyrosine antibody (1× final)/fluorescent phosphopeptide tracer (0.5× final) was added in FP Dilution Buffer to stop the reaction for a total volume of 40 uL according to manufacturer's instructions (PanVera Corporation) The plate was incubated for 30 minutes in the dark at room temperature. Plates were read on a Polarion fluorescence polarization plate reader (Tecan). Data were converted to amount of phosphopeptide present using a calibration curve generated by competition with the phosphopeptide competitor provided in the Tyrosine Kinase Assay Kit, Green (PanVera Corporation).

[2] = tested on: cultured human mast cells (CHMC); test: CHMC low cell density IgE activation: tryptase assay; assay type: cell-based; details: Homo sapiens, Mast cell, IgE activation
Method in brief: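 CHMC were seeded at 1000–1500 cells/well in MT buffer and incubated 1 hr at 37 °C. They were then stimulated with anti-IgE for 30 min at 37 °C, with unstimulated wells as controls. Released tryptase in the supernatant was measured with a fluorogenic substrate after 30 min at room temperature.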

C57BL/6 mice = test: Mouse cutaneous Reverse Passive Arthus (RPA) reaction, edema; assay type: in vivo
From the text: Immune complex (IC)-mediated acute inflammatory tissue injury is implicated in a variety of human autoimmune diseases, including vasculitis syndrome, sick serum syndrome, systemic lupus erythematosus (SLE), rheumatoid arthritis, Goodpasture's syndrome, and glomerulonephritis. The classical experimental model for IC-mediated tissue injury is the reverse passive Arthus reaction. The RPA reaction model is a convenient in vivo method to study localized inflammation, induced by ICs, without systemic effects. Intradermal injection of antibodies (Abs) specific to chicken egg albumin (rabbit anti-OVA IgG), followed by intravenous (IV) injection of antigens (Ags), specifically chicken egg albumin (ovalbumin, OVA), causes perivascular deposition of ICs and a rapid inflammatory response characterized by edema, neutrophil infiltration and hemorrhage at the injection sites. Aspects of the mouse RPA reaction model resemble the inflammatory response of patients with rheumatoid arthritis, SLE and glomerulonephritis.
(§1) In this model system, test compounds are administered at several timepoints prior to administration of Abs and Ags. A solution of rabbit anti-OVA IgG ([…] in 25 μl/mouse) is injected intradermally, and immediately following is an intravenous injection of chicken egg albumin (20 mg/kg of body weight) in a solution containing 1% Evans blue dye. The degree of edema and hemorrhage is measured in the dorsal skin of C57BL/6 mice using the Evan's Blue dye as an indicator of local tissue damage. Purified polyclonal rabbit IgG is used as a control.
Pretreatment time, in which the test compounds are administered prior to Ab/Ag challenge, depends on the pharmacokinetic (PK) properties of each individual compound. Four hours after induction of Arthus reaction, mice are euthanized, and tissues are harvested for assessment of edema. This model system allows us to rapidly screen the in vivo activity of many inhibitors.
(§2) All compounds tested were administered by the oral route.

[3] = Plasma concentration in the mouse RPA reaction study; assay type: in vivo
Protocol: as §1
Pretreatment time, in which the test compounds are administered prior to Ab/Ag challenge, depends on the pharmacokinetic (PK) properties of each individual compound. Four hours after induction of Arthus reaction, mice are euthanized, and tissues are harvested for assessment of edema.
as §2

[4] = low cell density CHMC, tryptase release
[5] = low cell density CHMC, tryptase release, 3 pt, read-out: LD Tryptase, CHMC, IgE, 3 pt
[6] = low cell density CHMC, tryptase release, 8 pt, read-out: LD Tryptase, CHMC, IgE, 8 pt
[7] = 0.1 mg/kg oral, pretreatment time 0.5 hrs
[8] = 0.5 mg/kg oral, pretreatment time 0.5 hrs
[9] = 1 mg/kg oral, pretreatment time 0.5 hrs
[10] = 5 mg/kg oral, pretreatment time 0.5 hrs
[11] = oral, dosage 0.5, pretreatment 5
[12] = oral, printed in dosage position 0.5, in pretreatment position 15
[13] = low cell density, 3 pt, read-out: LD Tryptase, CHMC, IgE, 3 pt
[14] = low cell density, 8 pt, read-out: LD Tryptase, CHMC, IgE, 8 pt
[15] = low cell density CHMC, tryptase
[16] = low cell density CHMC, tryptase, 3 pt, read-out: LD Tryptase, CHMC, IgE, 3 pt
[17] = low cell density CHMC, tryptase, 8 pt, read-out: LD Tryptase, CHMC, IgE, 8 pt

pIC50 [1, 4]: < 5.00
pIC50 (Syk kinase): > 5.00
pIC50 [2, 5]: > 5.00
pIC50 [2, 6]: > 5.00
SMILES: COc1ccc(Nc2nc(Nc3ccc4nc(C)[nH]c4c3)ncc2F)cc1Cl [Compound 808, N4-(3-Chloro-4-methoxyphenyl)-5-fluoro-N2-(2-methyl-3H-benzimidazol-5-yl)-2,4-pyrimidinediamine]

SMILES: Cc1nc2ccc(Nc3ncc(F)c(Nc4ccc(Cl)c(Cl)c4)n3)cc2[nH]1 [Compound 809, N4-(3,4-Dichlorophenyl)-5-fluoro-N2-(2-methyl-3H-benzimidazol-5-yl)-2,4-pyrimidinediamine]
pIC50 [1, 4]: < 5.00
pIC50 (Syk kinase): > 5.00
pIC50 [2, 5]: > 5.00
pIC50 [2, 6]: > 5.00

pIC50 [1, 4]: < 5.00
pIC50 [2, 5]: > 5.00
pIC50 [2, 6]: > 5.00
SMILES: Cc1nc2ccc(Nc3ncc(F)c(Nc4ccc5c(c4)NC(=O)C(C)(C)O5)n3)cc2[nH]1 [Compound 810, N4-(2,2-Dimethyl-3-oxo-4H-benz[1,4]oxazin-6-yl)-5-fluoro-N2-(2-methyl-3H-benzimidazol-5-yl)-2,4-pyrimidinediamine]
% inhibition to vehicle control Edema Size ± SEM (C57BL/6 mice; [7]): 69.5 ± 19.6%
% inhibition to vehicle control Edema Size ± SEM (C57BL/6 mice; [8]): 60.9 ± 9.6%
% inhibition to vehicle control Edema Size ± SEM (C57BL/6 mice; [9]): 81.3% and 81.3 ± 8.4%
% inhibition to vehicle control Edema Size ± SEM (C57BL/6 mice; [10]): 92.1 ± 3.1%

Exposure = Pretreatment Time + 4 hours Plasma Concentration ± SEM [3, 11]: 3.4 ± 9.1 ng/mL
Satellite: At time of challenge Plasma Concentration ± SEM [3, 11]: 22.1 ± 52.4 ng/mL
Exposure = Pretreatment Time + 4 hours Plasma Concentration ± SEM [3, 12]: 85.1 ± 161.9 ng/mL
Satellite: At time of challenge Plasma Concentration ± SEM [3, 12]: 1074.0 ± 492.3 ng/mL
pIC50 [2, 13]: > 5.00
pIC50 [2, 14]: > 5.00
SMILES: Cn1c(N2CCOCC2)nc2cc(Nc3ncc(F)c(Nc4ccc5c(c4)NC(=O)C(C)(C)O5)n3)ccc21 [Compound 944, N4-(2,2-Dimethyl-3-oxo-4H-benz[1,4]oxazin-6-yl)-5-fluoro-N2-[1-methyl-2-(4-morpholino)benzimidazol-5-yl]-2,4-pyrimidinediamine]
% inhibition to vehicle control Edema Size ± SEM (C57BL/6 mice; 2 mg/kg oral, pretreatment time 1 hr): 39.3 ± 13.8%
% inhibition to vehicle control Edema Size ± SEM (C57BL/6 mice; 5 mg/kg oral, pretreatment time 1 hr): 48.4 ± 12.0%
% inhibition to vehicle control Edema Size ± SEM (C57BL/6 mice; 15 mg/kg oral, pretreatment time 1 hr): 56.1 ± 9.2%
% inhibition to vehicle control Edema Size ± SEM (C57BL/6 mice; [11]): −16.0 ± 17.3%
% inhibition to vehicle control Edema Size ± SEM (C57BL/6 mice; [12]): 8.3 ± 13.4%

pIC50 ([1]; low cell density): > 5.00
pIC50 ([2]; CHMC, read-out: in vitro Potency (CHMC IgE)): 7.33
pIC50 [2, 13]: > 5.00
pIC50 [2, 14]: > 5.00
SMILES: COc1c(C)cc(Nc2ncc(F)c(Nc3ccc4c(c3)NC(=O)C(C)(C)O4)n2)cc1Cl.Cc1ccc(S(=O)(=O)O)cc1 [Compound 994, N2-(3-Chloro-4-methoxy-5-methylphenyl)-N4-(2,2-dimethyl-3-oxo-4H-benz[1,4]oxazin-6-yl)-5-fluoro-2,4-pyrimidinediamine p-Toluenesulfonic Acid Salt]
% inhibition to vehicle control Edema Size ± SEM (C57BL/6 mice; 100 mg/kg oral, 90 minutes prior to Ab/Ag challenge (pretreatment cell of table empty), C57BL/6 mice): 75% and 75.0 ± 6.2%

Exposure = Pretreatment Time + 4 hours Plasma Concentration ± SEM [3, 7]: BLQ
Exposure = Pretreatment Time + 4 hours Plasma Concentration ± SEM [3, 8]: BLQ
SMILES: COc1cc(Nc2ncc(F)c(Nc3ccc4c(n3)NC(=O)C(C)(C)O4)n2)cc(OC)c1OC [Compound 1007, N4-(2,2-Dimethyl-3-oxo-4H-5-pyrid[1,4]oxazin-6-yl)-5-fluoro-N2-(3,4,5-trimethoxyphenyl)-2,4-pyrimidinediamine]
% inhibition to vehicle control Edema Size ± SEM (C57BL/6 mice; [7]): 64.3% and 64.3 ± 11.2%
% inhibition to vehicle control Edema Size ± SEM (C57BL/6 mice; [8]): 78.7% and 78.7 ± 6.3%
% inhibition to vehicle control Edema Size ± SEM (C57BL/6 mice; [9]): 89.4 ± 2.2% and 98.1 ± 0.8%
% inhibition to vehicle control Edema Size ± SEM (C57BL/6 mice; 3 mg/kg oral, pretreatment time 0.5 hrs): 86.3 ± 7.9%
% inhibition to vehicle control Edema Size ± SEM (C57BL/6 mice; [10]): 99.8% and 99.8 ± 0.2%
% inhibition to vehicle control Edema Size ± SEM (C57BL/6 mice; 10 mg/kg oral, pretreatment time 0.5 hrs): 97.8 ± 1.1%
% inhibition to vehicle control Edema Size ± SEM (C57BL/6 mice; 30 mg/kg oral, pretreatment time 0.5 hrs): 88.2 ± 5.7%

pIC50 ([1]; low cell density CHMC, tryptase readout): < 5.00
pIC50 (Syk kinase): > 5.00
pIC50 ([2]; low cell density CHMC, tryptase readout, 3 pt, read-out: LD Tryptase, CHMC, IgE, 3 pt): > 5.00
pIC50 ([2]; low cell density CHMC, tryptase readout, 8 pt, read-out: LD Tryptase, CHMC, IgE, 8 pt): > 5.00
SMILES: COc1c(C)cc(Nc2ncc(F)c(Nc3cccc(NC4=NCCN4)c3)n2)cc1C [Compound 1093]

pIC50 [1, 15]: < 5.00
pIC50 (Syk kinase): > 5.00
pIC50 [2, 16]: > 5.00
pIC50 [2, 17]: > 5.00
SMILES: Fc1cnc(Nc2cccc(-c3ncco3)c2)nc1Nc1cc(C2CC2)n[nH]1 [Compound 1144, N4-(3-Cyclopropyl-1H-pyrazol-5-yl)-5-fluoro-N2-[3-(oxazol-2-yl)phenyl]-2,4-pyrimidinediamine]

pIC50 [1, 15]: < 5.00
pIC50 (Syk kinase): > 5.00
pIC50 [2, 16]: > 5.00
pIC50 [2, 17]: > 5.00
SMILES: CN1CCN(c2ccc(Nc3ncc(F)c(N(C)C4CCC4)n3)cc2)CC1 [Compound 1147, N4-Cyclobutyl-5-fluoro-N4-methyl-N2-[4-(4-methylpiperazino)phenyl]-2,4-pyrimidinediamine]

pIC50 [1, 15]: < 5.00
pIC50 (Syk kinase): > 5.00
pIC50 [2, 16]: > 5.00
SMILES: CN1CCN(c2ccc(Nc3ncc(F)c(NC4CCCCC4)n3)cc2)CC1 [Compound 1164, N4-Cyclohexyl-5-fluoro-N2-[4-(4-methylpiperazino)phenyl]-2,4-pyrimidinediamine]

pIC50 [1, 15]: < 5.00
pIC50 (Syk kinase): > 5.00
pIC50 [2, 16]: < 5.00
pIC50 [2, 17]: > 5.00
SMILES: O=C(Nc1ccc(Nc2ncc(F)c(NC3CCCCC3)n2)cc1)c1ccccc1 [Compound 1174, N2-(4-Benzamidophenyl)-N4-cyclohexyl-5-fluoro-2,4-pyrimidinediamine]
